Activity calls are given as the source filed them. The calls are words filed in the database; no cut-off is given here.
Assays:
[1] = molecular target: Fibroblast growth factor receptor 4 (Homo sapiens) (UniProt P22455); experiment: Inhibition of human FGFR4 at 1 uM using polyEy as substrate in presence of 33P-ATP by ProQinase assay
[2] = molecular target: Misshapen-like kinase 1 (Homo sapiens) (UniProt Q8N4C8); experiment: Inhibition of recombinant human N-terminal GST-tagged MINK1 (1 to 320 residues) expressed in baculovirus infected Sf21 cells assessed as remaining activity at 1 uM using MBP as substrate incubated for 30 mins in presence of [gamma-33P]ATP by filter binding method relative to control
[3] = molecular target: Bone morphogenetic protein receptor type-1A (Homo sapiens) (UniProt P36894); experiment: Inhibition of human BMPR1A at 1 uM using casein as substrate in presence of 33P-ATP by ProQinase assay
[4] = molecular target: MAP/microtubule affinity-regulating kinase 4 (Homo sapiens) (UniProt Q96L34); experiment: Inhibition of human MARK4 at 1 uM using RBER-CHKtide as substrate in presence of 33P-ATP by ProQinase assay
[5] = molecular target: LIM domain kinase 2 (Homo sapiens) (UniProt P53671); experiment: Inhibition of human LIMK2 at 1 uM using CFL1 as substrate in presence of 33P-ATP by ProQinase assay
[6] = molecular target: LIM domain kinase 1 (Homo sapiens) (UniProt P53667); experiment: Inhibition of human LIMK1 at 1 uM using CFL2 as substrate in presence of 33P-ATP by ProQinase assay
[7] = molecular target: MAP kinase-activated protein kinase 3 (Homo sapiens) (UniProt Q16644); experiment: Inhibition of recombinant human N-terminal GST-tagged MAPKAPK3 (2 to 382 residues) expressed in Escherichia coli assessed as remaining activity at 1 uM using KKLNRTLSVA as substrate incubated for 30 mins in presence of [gamma-33P]ATP by filter binding method relative to control
[8] = molecular target: Dual specificity protein kinase TTK (Homo sapiens) (UniProt P33981); experiment: Inhibition of human TTK at 1 uM using RBER-CHKtide as substrate in presence of 33P-ATP by ProQinase assay
[9] = molecular target: Serine/threonine-protein kinase D2 (Homo sapiens) (UniProt Q9BZL6); experiment: Inhibition of human PRKD2 at 1 uM using RBER-CHKtide as substrate in presence of 33P-ATP by ProQinase assay
[10] = molecular target: Myotonin-protein kinase (Homo sapiens) (UniProt Q09013); experiment: Inhibition of human DMPK at 1 uM using RBER-CHKtide as substrate in presence of 33P-ATP by ProQinase assay
[11] = molecular target: Ephrin type-A receptor 2 (Homo sapiens) (UniProt P29317); experiment: Inhibition of recombinant human N-terminal GST-tagged EPHA2 (591 to 976 residues) expressed in Escherichia coli assessed as remaining activity at 1 uM using Poly (Glu,Tyr) as substrate incubated for 30 mins in presence of [gamma-33P]ATP by filter binding method relative to control
[12] = molecular target: Mitogen-activated protein kinase kinase kinase 11 (Homo sapiens) (UniProt Q16584); experiment: Inhibition of human MAP3K11 at 1 uM using MBP as substrate in presence of 33P-ATP by ProQinase assay
[13] = molecular target: Activin receptor type-1 (Homo sapiens) (UniProt Q04771); experiment: Inhibition of human ACVR1 at 1 uM using RBER-GSK3 as substrate in presence of 33P-ATP by ProQinase assay
[14] = molecular target: Mitogen-activated protein kinase 9 (Homo sapiens) (UniProt P45984); experiment: Inhibition of human JNK2 at 1 uM using ATF2 as substrate in presence of 33P-ATP by ProQinase assay
[15] = molecular target: Glycogen synthase kinase-3 alpha (Homo sapiens) (UniProt P49840); experiment: Inhibition of human GSK3alpha at 1 uM using SUPT5 754-837 as substrate in presence of 33P-ATP by ProQinase assay
[16] = molecular target: Serine/threonine-protein kinase PAK 5 (Homo sapiens) (UniProt Q9P286); experiment: Inhibition of recombinant human N-terminal GST-tagged PAK5 (2 to 719 residues) expressed in Escherichia coli assessed as remaining activity at 1 uM using RRRLSFAEPG as substrate incubated for 30 mins in presence of [gamma-33P]ATP by filter binding method relative to control
[17] = molecular target: Angiopoietin-1 receptor (Homo sapiens) (UniProt Q02763); experiment: Inhibition of recombinant human N-terminal His6-tagged TIE2 (771 to 1124 residues) expressed in baculovirus infected Sf21 cells assessed as remaining activity at 1 uM using Poly(Glu,Tyr) as substrate incubated for 30 mins in presence of [gamma-33P]ATP by filter binding method relative to control
[18] = molecular target: Protein kinase C alpha type (Homo sapiens) (UniProt P17252); experiment: Inhibition of recombinant human N-terminal His6-tagged PKCalpha (1 to 672 residues) expressed in baculovirus infected Sf21 cells assessed as remaining activity at 1 uM using Histone H1 as substrate incubated for 30 mins in presence of [gamma-33P]ATP by filter binding method relative to control
[19] = molecular target: Insulin receptor (Homo sapiens) (UniProt P06213); experiment: Inhibition of recombinant human N-terminal His6-tagged IR (1001 to 1382 residues) expressed in baculovirus infected Sf21 cells assessed as remaining activity at 1 uM using KKSRGDYMTMQIG as substrate incubated for 30 mins in presence of [gamma-33P]ATP by filter binding method relative to control
[20] = molecular target: Serine/threonine-protein kinase WNK3 (Homo sapiens) (UniProt Q9BYP7); experiment: Inhibition of human WNK3 at 1 uM using RB-S6P as substrate in presence of 33P-ATP by ProQinase assay
[21] = molecular target: Phosphatidylinositol 3-kinase C2 domain-containing subunit gamma (Homo sapiens, UniProt O75747); experiment: Inhibition of human PIK3C2G using PIP2/PS as substrate by ADP-Glo assay
[22] = molecular target: Inhibitor of nuclear factor kappa-B kinase subunit epsilon (Homo sapiens) (UniProt Q14164); experiment: Inhibition of recombinant human N-terminal GST-tagged IKKepsilon (1 to 716 residues) expressed in baculovirus infected Sf21 cells assessed as remaining activity at 1 uM using MBP as substrate incubated for 30 mins in presence of [gamma-33P]ATP by filter binding method relative to control
[23] = molecular target: Cyclin-Y/Cyclin-dependent kinase 16 (Homo sapiens) (UniProt Q00536+Q8ND76); experiment: Inhibition of human PCTAIRE1/CyclinY at 1 uM using RBER-GSK3 as substrate in presence of 33P-ATP by ProQinase assay; format: protein-complex assay
[24] = molecular target: Mitogen-activated protein kinase 1 (Homo sapiens) (UniProt P28482); experiment: Inhibition of recombinant human N-terminal GST-tagged ERK2 (2 to 360 residues) expressed in Escherichia coli assessed as remaining activity at 1 uM using MBP as substrate incubated for 30 mins in presence of [gamma-33P]ATP by filter binding method relative to control
[25] = molecular target: Casein kinase I isoform epsilon (Homo sapiens) (UniProt P49674); experiment: Inhibition of human CK1epsilon at 1 uM using casein as substrate in presence of 33P-ATP by ProQinase assay

Bone morphogenetic protein receptor type-1A (Homo sapiens), sequence (P36894 whole entry): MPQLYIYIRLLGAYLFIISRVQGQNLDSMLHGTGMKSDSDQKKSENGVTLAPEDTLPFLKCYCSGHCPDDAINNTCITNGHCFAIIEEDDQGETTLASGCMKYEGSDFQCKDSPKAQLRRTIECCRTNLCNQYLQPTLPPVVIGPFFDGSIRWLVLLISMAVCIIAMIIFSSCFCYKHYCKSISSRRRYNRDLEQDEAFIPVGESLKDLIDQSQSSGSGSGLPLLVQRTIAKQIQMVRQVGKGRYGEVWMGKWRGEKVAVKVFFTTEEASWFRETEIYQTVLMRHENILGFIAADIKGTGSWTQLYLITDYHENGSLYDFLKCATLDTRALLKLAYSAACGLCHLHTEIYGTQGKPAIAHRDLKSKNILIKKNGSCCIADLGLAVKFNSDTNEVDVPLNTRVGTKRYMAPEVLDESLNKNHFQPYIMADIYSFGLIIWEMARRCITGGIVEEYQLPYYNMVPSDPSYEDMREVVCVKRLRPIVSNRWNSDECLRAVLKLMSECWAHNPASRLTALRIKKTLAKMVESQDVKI
Ephrin type-A receptor 2 (Homo sapiens), sequence (P29317 whole entry, the tested form may be a part): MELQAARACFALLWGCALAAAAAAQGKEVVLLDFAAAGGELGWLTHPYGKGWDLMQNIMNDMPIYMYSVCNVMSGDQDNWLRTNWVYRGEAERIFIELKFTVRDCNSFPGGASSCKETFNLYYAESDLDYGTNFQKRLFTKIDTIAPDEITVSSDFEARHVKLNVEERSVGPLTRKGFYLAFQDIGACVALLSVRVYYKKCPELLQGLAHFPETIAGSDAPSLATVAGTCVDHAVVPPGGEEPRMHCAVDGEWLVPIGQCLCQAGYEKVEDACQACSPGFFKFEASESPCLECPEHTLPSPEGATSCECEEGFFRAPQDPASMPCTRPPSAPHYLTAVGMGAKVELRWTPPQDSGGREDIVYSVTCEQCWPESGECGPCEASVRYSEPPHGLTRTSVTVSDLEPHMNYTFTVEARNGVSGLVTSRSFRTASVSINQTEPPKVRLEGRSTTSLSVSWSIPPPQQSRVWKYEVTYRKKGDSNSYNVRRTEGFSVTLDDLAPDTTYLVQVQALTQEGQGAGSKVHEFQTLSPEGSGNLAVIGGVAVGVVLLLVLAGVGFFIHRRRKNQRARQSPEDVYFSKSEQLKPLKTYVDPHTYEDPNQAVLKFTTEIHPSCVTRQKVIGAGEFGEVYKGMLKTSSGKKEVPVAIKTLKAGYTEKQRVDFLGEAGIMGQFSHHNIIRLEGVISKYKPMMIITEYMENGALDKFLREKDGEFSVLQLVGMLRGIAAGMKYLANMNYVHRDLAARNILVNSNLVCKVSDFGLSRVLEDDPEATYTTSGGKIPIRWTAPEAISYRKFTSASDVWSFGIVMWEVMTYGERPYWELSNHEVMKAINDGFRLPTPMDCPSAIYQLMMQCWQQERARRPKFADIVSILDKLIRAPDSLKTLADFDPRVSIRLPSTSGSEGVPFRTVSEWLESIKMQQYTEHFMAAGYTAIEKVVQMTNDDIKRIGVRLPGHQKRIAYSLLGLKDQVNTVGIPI
Serine/threonine-protein kinase WNK3 (Homo sapiens), sequence (Q9BYP7 whole entry, the tested form may be a part): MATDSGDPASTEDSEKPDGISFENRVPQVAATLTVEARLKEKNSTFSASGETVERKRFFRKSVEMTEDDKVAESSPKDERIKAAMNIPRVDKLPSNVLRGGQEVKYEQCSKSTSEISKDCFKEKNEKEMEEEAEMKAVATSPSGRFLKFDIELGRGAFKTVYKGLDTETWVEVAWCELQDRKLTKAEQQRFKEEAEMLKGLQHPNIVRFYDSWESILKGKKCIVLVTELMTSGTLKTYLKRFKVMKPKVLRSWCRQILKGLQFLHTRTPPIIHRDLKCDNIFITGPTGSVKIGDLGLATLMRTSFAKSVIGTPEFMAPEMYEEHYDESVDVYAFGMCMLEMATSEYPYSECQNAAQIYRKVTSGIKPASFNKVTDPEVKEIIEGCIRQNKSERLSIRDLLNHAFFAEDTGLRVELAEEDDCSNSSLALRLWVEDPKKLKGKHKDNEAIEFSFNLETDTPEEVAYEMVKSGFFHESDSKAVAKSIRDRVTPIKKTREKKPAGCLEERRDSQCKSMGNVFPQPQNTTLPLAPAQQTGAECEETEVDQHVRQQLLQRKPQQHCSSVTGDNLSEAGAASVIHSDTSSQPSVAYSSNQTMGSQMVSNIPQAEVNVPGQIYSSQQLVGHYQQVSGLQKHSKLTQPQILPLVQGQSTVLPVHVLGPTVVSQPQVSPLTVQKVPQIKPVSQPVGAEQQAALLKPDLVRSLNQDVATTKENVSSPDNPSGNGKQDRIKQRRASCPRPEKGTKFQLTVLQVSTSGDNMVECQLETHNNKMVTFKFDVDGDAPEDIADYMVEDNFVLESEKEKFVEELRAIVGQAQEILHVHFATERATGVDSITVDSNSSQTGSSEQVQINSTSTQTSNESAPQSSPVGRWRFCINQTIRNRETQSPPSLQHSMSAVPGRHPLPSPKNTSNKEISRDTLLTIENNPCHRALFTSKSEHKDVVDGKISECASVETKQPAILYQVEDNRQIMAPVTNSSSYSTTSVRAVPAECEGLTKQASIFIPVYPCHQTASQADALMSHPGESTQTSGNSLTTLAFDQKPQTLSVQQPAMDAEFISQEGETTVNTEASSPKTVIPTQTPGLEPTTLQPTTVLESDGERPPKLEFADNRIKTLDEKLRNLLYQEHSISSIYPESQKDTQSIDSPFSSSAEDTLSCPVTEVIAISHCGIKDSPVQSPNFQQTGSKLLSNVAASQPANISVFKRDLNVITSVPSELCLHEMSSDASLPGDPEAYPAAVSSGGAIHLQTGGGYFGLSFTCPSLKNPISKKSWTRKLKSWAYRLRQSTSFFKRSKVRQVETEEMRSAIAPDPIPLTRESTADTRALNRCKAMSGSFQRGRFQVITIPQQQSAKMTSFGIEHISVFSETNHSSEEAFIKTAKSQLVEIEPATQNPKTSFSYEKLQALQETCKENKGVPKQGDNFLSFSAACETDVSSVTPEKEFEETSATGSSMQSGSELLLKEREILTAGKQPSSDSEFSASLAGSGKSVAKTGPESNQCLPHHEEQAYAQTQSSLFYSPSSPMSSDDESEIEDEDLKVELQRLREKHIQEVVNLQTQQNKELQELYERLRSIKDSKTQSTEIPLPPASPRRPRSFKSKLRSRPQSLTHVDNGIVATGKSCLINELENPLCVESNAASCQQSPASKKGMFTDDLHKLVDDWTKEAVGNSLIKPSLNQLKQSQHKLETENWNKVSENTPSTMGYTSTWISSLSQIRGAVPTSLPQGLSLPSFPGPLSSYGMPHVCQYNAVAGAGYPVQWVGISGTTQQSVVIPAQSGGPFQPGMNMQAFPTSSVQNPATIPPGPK
Myotonin-protein kinase (Homo sapiens), sequence (Q09013 whole entry, the tested form may be a part): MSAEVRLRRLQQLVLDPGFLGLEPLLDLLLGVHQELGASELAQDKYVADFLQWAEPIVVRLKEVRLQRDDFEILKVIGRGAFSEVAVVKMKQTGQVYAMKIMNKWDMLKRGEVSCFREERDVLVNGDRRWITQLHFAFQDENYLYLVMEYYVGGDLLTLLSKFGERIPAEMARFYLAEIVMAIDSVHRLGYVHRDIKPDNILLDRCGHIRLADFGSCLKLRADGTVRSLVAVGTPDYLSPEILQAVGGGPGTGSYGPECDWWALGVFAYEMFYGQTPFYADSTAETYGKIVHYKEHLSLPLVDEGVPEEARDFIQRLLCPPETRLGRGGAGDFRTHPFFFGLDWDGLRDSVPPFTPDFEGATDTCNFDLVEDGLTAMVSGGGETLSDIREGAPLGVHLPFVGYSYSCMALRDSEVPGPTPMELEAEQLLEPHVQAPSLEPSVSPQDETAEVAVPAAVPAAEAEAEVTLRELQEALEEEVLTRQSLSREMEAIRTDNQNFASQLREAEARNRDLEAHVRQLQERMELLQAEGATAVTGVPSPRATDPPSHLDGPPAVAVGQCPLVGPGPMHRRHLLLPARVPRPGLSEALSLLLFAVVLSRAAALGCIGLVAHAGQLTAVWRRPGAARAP
Mitogen-activated protein kinase 9 (Homo sapiens), sequence (P45984 whole entry, looked up): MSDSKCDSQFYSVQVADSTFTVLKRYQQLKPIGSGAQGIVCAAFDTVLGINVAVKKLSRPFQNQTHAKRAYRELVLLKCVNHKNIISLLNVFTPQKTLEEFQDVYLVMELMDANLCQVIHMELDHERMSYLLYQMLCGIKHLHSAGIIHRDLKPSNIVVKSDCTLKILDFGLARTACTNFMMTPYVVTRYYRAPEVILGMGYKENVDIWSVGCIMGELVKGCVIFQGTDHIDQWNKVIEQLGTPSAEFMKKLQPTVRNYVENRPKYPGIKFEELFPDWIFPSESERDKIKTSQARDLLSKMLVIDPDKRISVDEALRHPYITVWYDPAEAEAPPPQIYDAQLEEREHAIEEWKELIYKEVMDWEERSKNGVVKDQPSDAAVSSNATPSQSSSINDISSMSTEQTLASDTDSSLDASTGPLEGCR
Glycogen synthase kinase-3 alpha (Homo sapiens), sequence (P49840 2-483 limits assumed): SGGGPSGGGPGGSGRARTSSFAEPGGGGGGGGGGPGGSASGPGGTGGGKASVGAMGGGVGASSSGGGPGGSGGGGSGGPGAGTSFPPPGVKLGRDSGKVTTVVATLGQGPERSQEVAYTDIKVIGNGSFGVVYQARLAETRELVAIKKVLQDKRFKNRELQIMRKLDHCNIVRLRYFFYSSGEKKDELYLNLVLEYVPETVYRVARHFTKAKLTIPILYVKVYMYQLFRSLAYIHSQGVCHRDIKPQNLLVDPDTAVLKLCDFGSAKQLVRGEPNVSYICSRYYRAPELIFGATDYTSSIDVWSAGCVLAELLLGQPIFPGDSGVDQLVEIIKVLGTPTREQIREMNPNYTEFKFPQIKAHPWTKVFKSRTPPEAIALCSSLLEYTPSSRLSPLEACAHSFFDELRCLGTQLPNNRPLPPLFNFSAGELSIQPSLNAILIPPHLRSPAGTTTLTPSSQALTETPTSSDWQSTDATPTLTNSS

With `CC(C)(O)CNc1ncc(-c2ccnc(Nc3ccnc(Cl)c3)n2)c(CC2CC2)n1` the inhibition [1] was “inactive”, the Activity [2] was 103% and the inhibition [3] was “inactive”. The inhibition [4] was “inactive”, the inhibition [5] was “inactive” and the inhibition [6] was “inactive”. For the same compound, the Activity [7] was 115%, the inhibition [8] was “inactive” and the inhibition [9] was “inactive”. For the same compound, the inhibition [10] was “inactive”, the Activity [11] was 101% and the inhibition [12] was “inactive”. For the same compound, the inhibition [13] was “inactive”, the inhibition [14] was “inactive” and the inhibition [15] was “inactive”. The Activity [16] was 96%, the Activity [17] was 93% and the Activity [18] was 119%. The Activity [19] was 109%, the inhibition [20] was “inactive” and the IC50 [21] was greater than 10 µM. The Activity [22] was 103%, the inhibition [23] was “inactive” and the Activity [24] was 116%. For the same compound, the inhibition [25] was “inactive”.
